Measurements from patent US5209930A, “Preparation and use of N-iodopropargyl oxycarbonyl amino acid esters and derivatives as antimicrobial agents” (Rohm and Haas Company, priority 1990, dated 1993).
Converted amounts (≈) assume the structure as drawn.

What was measured:
Assay in all cases: MIC, broth two-fold serial dilution test
[1] = system: Pseudomonas aerugenosa (PSAE); assay type: cell-based, gram negative, ATCC 15442; conditions: Pseudomonas aeruginosa (G-); M9G (minimal salts media with glucose); read-out: minimum inhibitory concentration (MIC), PSAE
Description: (§1) Biocidal evaluations (bactericidal, algicidal, and fungicidal) were carried out.
(§2) A minimum inhibitory concentration (MIC) value is obtained using a broth, two-fold serial dilution test performed as follows: A stock solution or dispersion of the test compound, typically at a concentration of 1%, is made in a 5:3:2 solvent solution of acetone, methanol, and water. A volume of the stock solution is dispensed into culture media to give an initial starting test concentration of 500 ppm compound.
(§3) When the test is ready to be done, each vessel in the dilution series, except the first vessel, contains an equal volume of compound free broth. The first vessel contains twice the volume of broth with the starting concentration of test compound. One half of the broth from the first vessel is transferred to the second vessel. After being mixed, one half the resulting volume is removed from the second vessel and transferred to the third vessel. The entire cycle is repeated sufficiently to give a series of concentrations amounting to 500, 250, 125, 63, 31, 16, 8, and 4 ppm (or 100, 50, 25, 12.5, 6.2, 3.1, 1.6, and 0.8), respectively.
(§4) Each vessel is then inoculated with a cell suspension of the appropriate test organism. Bacteria are grown in broth, fungi on agar slants for a time and at a temperature appropriate to the species being tested, and algae are a mixture of green algae and blue-green bacteria grown in a nutrient media. At the end of the growth period, in the case of bacteria, the broth is vortexed to disperse the cells.
(§5) The vessels are then incubated at the appropriate temperature. After the incubation, the vessels are examined for growth/no growth. The minimum inhibitory concentration (MIC) is defined as the lowest concentration of compound that results in complete inhibition of growth of the test organism.
Pseudomonas aerugenosa (PSAE), gram negative
(§6) These compounds were tested in M9G
(§7) (minimal salts media with glucose)
1. Pseudomonas aeruginosa (-)

[2] = system: Pseudomonas fluorescens (PSFL); assay type: cell-based, gram negative, ATCC 948; conditions: Pseudomonas fluorescens (G-); M9G (minimal salts media with glucose); read-out: minimum inhibitory concentration (MIC), PSFL
Description: as §1, §2, §3, §4, §5
Pseudomonas fluorescens (PSFL), gram negative
as §6, §7
4. Pseudomonas fluorescens (-)

Escherichia coli (ECOL) = assay type: cell-based, gram negative, ATCC 11229; conditions: Escherichia coli (G-); M9G (minimal salts media with glucose); read-out: minimum inhibitory concentration (MIC), ECOL
Description: as §1, §2, §3, §4, §5
Escherichia coli (ECOL), gram negative
as §6, §7

[3] = system: Aureobasidium pullulans (APUL); assay type: cell-based, ATCC 9348; conditions: Aureobasidium pullulans (F); M9G (minimal salts media with glucose); read-out: minimum inhibitory concentration (MIC), APUL
Description: as §1, §2, §3, §4
(§8) In the case of fungi, the spores are harvested by pipetting water onto the slant and dislodging the spores with a sterile loop. The cell/spore suspension is standardized by controlling incubation time, temperature, and the volume of the diluent. The suspension is then used to inoculate the vessels containing the broth compound.
as §5
Aureobasidium pullulans (APUL)
as §6, §7
6. Aureobasidium pullulans

Aspergillus niger (ANIG) = assay type: cell-based, ATCC 6275; conditions: Aspergillus niger (F); M9G (minimal salts media with glucose); read-out: minimum inhibitory concentration (MIC), ANIG
Description: as §1, §2, §3, §4, §8, §5, §6, §7

[4] = system: Staphylococcus aureus (SAUR); assay type: cell-based, gram positive, ATCC 6538; conditions: Staphylococcus aureus (G+); M9G (minimal salts media with glucose); read-out: minimum inhibitory concentration (MIC), SAUR
Description: as §1, §2, §3, §4, §5
Staphylococcus aureus (SAUR), gram positive
as §6, §7
2. Staphylococcus aureus (+)

ALGAE = assay type: cell-based, mixture of green algae and blue-green bacteria; conditions: green algae and blue-green bacteria; culture in Allen's medium; read-out: minimum inhibitory concentration (MIC), ALGAE
Description: as §1, §2, §3
Each vessel is then inoculated with a cell suspension of the appropriate test organism. […]

Row | SMILES | MIC [1] | MIC [2] | MIC (Escherichia coli (ECOL)) | MIC [3] | MIC (Aspergillus niger (ANIG)) | MIC [4] | MIC (ALGAE)
1 | CCCCCCCCOC(=O)[C@H](C)NC(=O)OCC#CI [Compound 7, N-iodopropargyloxycarbonyl alanine n-octyl ester] | 125 µg/mL | 8 µg/mL | < 4 µg/mL | < 63 µg/mL | < 4 µg/mL | 63 µg/mL | –
2 | O=C(N[C@@H](Cc1ccccc1)C(=O)O)OCC#CI [Compound 8, N-iodopropargyloxycarbonyl phenylalanine] | 250 µg/mL | 63 µg/mL | < 4 µg/mL | 250 µg/mL | 250 µg/mL | 125 µg/mL | –
3 | COC(=O)CNC(=O)OCC#CI [Compound 2, N-iodopropargyloxycarbonyl glycine methyl ester] | 32 µg/mL | 16 µg/mL | 32 µg/mL | < 4 µg/mL | < 4 µg/mL | 16 µg/mL | –
4 | O=C(CNC(=O)OCC#CI)OCC#CI [Compound 4, N-iodopropargyloxycarbonyl glycine iodopropargyl ester] | 125 µg/mL | 32 µg/mL | 125 µg/mL | < 0.12 µg/mL | < 0.12 µg/mL | 32 µg/mL | 12.5 µg/mL (≈ 28 µM)
5 | COC(=O)[C@H](C)NC(=O)OCC#CI [Compound 6, N-iodopropargyloxycarbonyl alanine methyl ester] | 32 µg/mL | < 4 µg/mL | < 4 µg/mL | < 4 µg/mL | < 4 µg/mL | 16 µg/mL | –
6 | CCCCCCCCOC(=O)[C@H](Cc1ccccc1)NC(=O)OCC#CI [Compound 10, N-iodopropargyloxycarbonyl phenylalanine n-octyl ester] | 63 µg/mL | 32 µg/mL | < 4 µg/mL | 125 µg/mL | 125 µg/mL | 32 µg/mL | –
7 | COC(=O)[C@H](Cc1ccccc1)NC(=O)OCC#CI [Compound 9, N-iodopropargyloxycarbonyl phenylalanine methyl ester] | > 500 µg/mL | 125 µg/mL | > 500 µg/mL | < 4 µg/mL | < 4 µg/mL | 125 µg/mL | –
8 | C[C@H](NC(=O)OCC#CI)C(=O)O [Compound 5, N-iodopropargyloxycarbonyl alanine] | > 500 µg/mL | 125 µg/mL | 125 µg/mL | 32 µg/mL | 125 µg/mL | 250 µg/mL | –
9 | O=C(O)CNC(=O)OCC#CI [Compound 1, N-iodopropargyloxycarbonyl glycine] | > 500 µg/mL | 250 µg/mL | 250 µg/mL | > 500 µg/mL | > 500 µg/mL | 250 µg/mL | –
10 | CCCCCCCCOC(=O)CNC(=O)OCC#CI [Compound 3, N-Iodopropargyloxycarbonyl glycine n-octyl ester] | > 500 µg/mL | 8 µg/mL | > 500 µg/mL | < 4 µg/mL | < 4 µg/mL | 8 µg/mL | –
